Measurements published in publication PMC8224985 (European journal of medicinal chemistry, 2020).

Columns and labels:
human SphK2 = molecular target: T1, human SphK2 (Homo sapiens, UniProt Q9NRA0); assay: Recombinant hSphK2 activity, single-concentration screen; details: for inhibition at 0.3 µM: read-out: inhibition of hSphK2 activity, compound 0.3 μM
T1 sequence (Q9NRA0 1-654): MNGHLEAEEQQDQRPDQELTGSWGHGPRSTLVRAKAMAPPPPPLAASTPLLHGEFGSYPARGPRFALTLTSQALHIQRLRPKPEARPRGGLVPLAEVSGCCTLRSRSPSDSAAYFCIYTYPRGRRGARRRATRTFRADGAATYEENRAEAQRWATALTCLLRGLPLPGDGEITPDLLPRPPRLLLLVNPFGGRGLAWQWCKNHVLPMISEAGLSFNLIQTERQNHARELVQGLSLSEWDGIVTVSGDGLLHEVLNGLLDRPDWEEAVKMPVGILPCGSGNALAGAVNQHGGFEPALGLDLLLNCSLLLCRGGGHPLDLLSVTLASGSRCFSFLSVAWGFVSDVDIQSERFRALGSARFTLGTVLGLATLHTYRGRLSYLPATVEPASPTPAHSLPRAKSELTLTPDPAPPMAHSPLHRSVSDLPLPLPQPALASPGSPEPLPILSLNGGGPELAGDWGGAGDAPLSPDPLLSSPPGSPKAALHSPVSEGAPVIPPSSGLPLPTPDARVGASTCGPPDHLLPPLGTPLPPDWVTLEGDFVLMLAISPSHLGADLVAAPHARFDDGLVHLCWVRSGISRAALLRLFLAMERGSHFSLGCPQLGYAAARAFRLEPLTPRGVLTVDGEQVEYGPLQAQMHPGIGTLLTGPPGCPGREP

human SphK1 = human SphK1 (Homo sapiens, UniProt Q9NYA1); assay: Recombinant hSphK1 activity, single-concentration screen; details: compound 1 μM
SphK2 [1] = details: read-out: SphK2 Ki; cited from earlier work
SphK2 [2] = assay: FTY720-P formation in U937 cells treated with FTY720; assay type: cell-based; details: 1 μM FTY720, compound 0.1 μM to 1 μM, 2 hours, duplicate
U937 cells = assay: S1P levels in U937 cells by LC-MS/MS; assay type: cell-based; details: 0.1 to 1 μM, 2 hours, duplicate

human SphK1, sequence (Q9NYA1 whole entry): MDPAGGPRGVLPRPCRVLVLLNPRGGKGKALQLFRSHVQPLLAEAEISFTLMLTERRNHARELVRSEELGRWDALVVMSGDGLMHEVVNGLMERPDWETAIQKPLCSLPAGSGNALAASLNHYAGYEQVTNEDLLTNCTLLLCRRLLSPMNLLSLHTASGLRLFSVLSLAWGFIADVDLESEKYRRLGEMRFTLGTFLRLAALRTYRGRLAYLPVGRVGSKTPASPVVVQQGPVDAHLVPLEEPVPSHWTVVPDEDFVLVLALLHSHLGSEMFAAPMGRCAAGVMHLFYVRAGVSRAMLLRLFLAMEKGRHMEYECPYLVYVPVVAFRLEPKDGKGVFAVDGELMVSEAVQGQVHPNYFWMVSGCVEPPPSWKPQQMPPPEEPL

inhibition at 0.3 µM (human SphK2)	Compound	other results
	CCCCCCCCCn1cc(-c2noc(C[C@@H]3CCCN3C(=N)N)n2)c2ccccc21.Cl [Compound 11, (S)-Amino(2-((3-(1-nonyl-1H-indol-3-yl)-1,2,4-oxadiazol-5-yl)methyl)pyrrolidin-1-yl)methaniminium chloride]	effect on hSphK2 activity (in words) (human SphK2; compound 0.3 μM): inactive; effect on hSphK1 activity (in words) (human SphK1): inactive
	O=C(NCc1ccncc1)C12CC3CC(C1)CC(c1ccc(Cl)cc1)(C3)C2 [ABC294640]	Ki (SphK2 [1]): 10 µM
32%	CCCCCCCCCCn1ccc2ccc(-c3noc([C@@H]4CCCN4C(=N)N)n3)cc21 [Compound 6w, (S)-Amino(2-(3-(1-decyl-1H-indol-6-yl)-1,2,4-oxadiazol-5-yl)pyrrolidin-1-yl)methaniminium chloride]	
36%	CCCCCCCCCCn1ccc2c(-c3noc([C@@H]4CCCN4C(=N)N)n3)cccc21 [Compound 6n, (S)-Amino(2-(3-(1-decyl-1H-indol-4-yl)-1,2,4-oxadiazol-5-yl)pyrrolidin-1-yl)methaniminium chloride]	
70%	CCCCCCCCCCn1ccc2cc(-c3noc([C@@H]4CCCN4C(=N)N)n3)ccc21 [Compound 6s, (S)-Amino(2-(3-(1-decyl-1H-indol-5-yl)-1,2,4-oxadiazol-5-yl)pyrrolidin-1-yl)methaniminium chloride]	
	CCCCCCCCCn1ccc2cc(-c3noc([C@@H]4CCCN4C(=N)N)n3)ccc21.Cl [Compound 6r, (S)-Amino(2-(3-(1-nonyl-1H-indol-5-yl)-1,2,4-oxadiazol-5-yl)pyrrolidin-1-yl)methaniminium chloride]	FTY720-P levels in cells (SphK2 [2]): concomitant decrease in FTY720-P in a dose dependent manner; S1P levels in cells (U937 cells): dose-dependent decrease

Compound	inhibition at 0.3 µM (human SphK2)	other results
CCCCCCCCCCn1cc(-c2noc([C@@H]3CCCN3C(=N)N)n2)c2ccccc21 [Compound 6h, (S)-Amino(2-(3-(1-decyl-1H-indol-3-yl)-1,2,4-oxadiazol-5-yl)pyrrolidin-1-yl)methaniminium chloride]	> 50%	
CCCCCCCCCCCCn1cc(-c2noc([C@@H]3CCCN3C(=N)N)n2)c2ccccc21 [Compound 6j, (S)-Amino(2-(3-(1-dodecyl-1H-indol-3-yl)-1,2,4-oxadiazol-5-yl)pyrrolidin-1-yl)methaniminium chloride]	> 50%	
